Here are results for two molecules from patent publication US20060264498A1, “Anti-obesity agent” (Kyowa Hakko Kogyo Co., Ltd., priority 2003, published 2006).

SMILES strings stand for the structures.

The assay has as its system KK-Ay/Ta Jc1 mice. Put plainly: Body weight increase per ingested feed amount in obesity type 2 diabetic model mice. The format is in vivo. Conditions: KK-Ay/Ta Jc1 male mice, 1% by weight in CE-2 feed; for Body Weight Increase/ Ingested Feed Amount (%): free intake, initial day to 17th day, mean value ± standard error (n=5); for body weight increase per ingested feed amount as compared with group 1 (CE-2 feed only): 17 days, t-test. An excerpt:
KK-Ay/Ta Jc1 mice (Clea Japan, Inc.; male; six weeks age)(15 mice) of an obesity type 2 diabetic model were divided into three groups each comprising five and named group 1 to group 3.
The mice of the groups 1 to 3 were made free to take feed and water. A commercially available feed CE-2 (manufactured by Clea Japan, Inc.) was ingested to the mice of group 1. CE-2 to which 1% by weight of trans-4-hydroxy-L-proline (manufactured by Kyowa Hakko Kogyo; hereinafter, abbreviated as the hydroxyproline) was added was ingested to the mice of group 2. CE-2 to which 1% by weight of trans-N-acetyl-4-hydroxy-L-proline (manufactured by Kyowa Hakko Kogyo; hereinafter, abbreviated as the N-acetylhydroxyproline) was added was ingested to the mice of group 3.
Body weight on the initial day of the test and on the 17th day and amount of the ingested feed from the initial day of the test to the 17th day were measured. As an index for the progress of obesity, a body weight increase during the test period for the total ingested feed amount during the test period was calculated for each mouse. The value was shown in terms of mean value±standard error (n=5) and statistic ratio of risk (p value) was determined by a t-test.

For `O=C(O)[C@@H]1C[C@@H](O)CN1` [hydroxyproline, trans-4-hydroxy-L-proline], the “Body Weight Increase/ Ingested Feed Amount (%)” value worked out at 5.8 ± 0.4% and the “body weight increase per ingested feed amount as compared with group 1 (CE-2 feed only)” value is “tended to show low value”.

As to `CC(=O)N1C[C@H](O)C[C@H]1C(=O)O` [N-acetylhydroxyproline, trans-N-acetyl-4-hydroxy-L-proline], the “Body Weight Increase/ Ingested Feed Amount (%)” value was found to be 4.2 ± 0.6 % and the “body weight increase per ingested feed amount as compared with group 1 (CE-2 feed only)” value was “significantly low”.
